Measurements as given in patent US4345938A, “Herbicidal 2-haloacetanilides” (Monsanto Company, priority 1980, dated 1982).
Values after ≈ are worked out from the molar mass of the structure shown.

Legend:
Type in all cases: in vivo
Crabgrass = assay: Pre-emergent herbicidal test, Crabgrass; conditions: Table II; note: ranges in brackets are in %
Excerpt: (§1) A good grade of top soil is placed in aluminum pans and compacted to a depth of three-eights to one-half inch from the top of the pan. On the top of the soil is placed a number of seeds or vegetative propagules of various plant species. The soil required to level fill the pans after seeding or adding vegetative propagules is weighted into a pan. The soil and a known amount of the active ingredient applied in a solvent or as a wettable powder suspension are thoroughly mixed, and used to cover the prepared pans. After treatment, the pans are moved into a greenhouse bench where they are watered by subirrigation as needed to give adequate moisture for germination and growth.
(§2) Approximately 2 weeks after seeding and treating, the plants were observed and the results recorded. The herbicidal rating was obtained by means of a fixed scale based on the percent injury of each plant species. The ratings are defined as follows: […]
The compounds were further tested by utilizing the above procedure on the following plant species: […]

Carp = assay: Fish toxicity (carp), Japanese protocol
Experimental: (§3) In view of the importance of fish toxicity considerations, tests were conducted with the compound of Example 1 on carp (7 cm) according to Japanese protocol; test data are shown in Table VII. Since U.S. Pat. No. 3,955,959 mentioned above discloses carp toxicity data for butachlor (Compound A) and terbuchlor (Compound C), also obtained according to Japanese protocol, the toxicity data in said U.S. Pat. No. 3,955,959 for these compounds is also presented in Table VII for comparative purposes.

[1] = Fish toxicity (carp), Japanese protocol; conditions: in vivo, carp (7 cm), read-out: TLM, Median Tolerance Limit (LC50)
Experimental: as §3

Canada Thistle = assay: Pre-emergent herbicidal test, Canada Thistle; conditions: Table I; note: ranges in brackets are in %
Excerpt: as §1, §2

redroot pigweed = assay: Sugarbeet greenhouse test, RRP; conditions: in sugarbeets
Excerpt: (§4) In the discussion of data below, occasional reference is made to herbicide application rates symbolized as "GR15 " and "GR85 "; these rates are given in kilograms per hectare (kg/ha) which are convertible into pounds per acre (lbs/A) by dividing the kg/ha rate by 1.12.
(§5) A further guide to the effectiveness of a chemical as a selective herbicide is the "selectivity factor" ("SF") for a herbicide in given crops and weeds. The selectivity factor is a measure of the relative degree of crop safety and weed injury and is expressed in terms of the GR15 /GR85 ratio, i.e., the GR15 rate for the crop divided by the GR85 rate for the weed, both rates in kg/ha (lb/A.)
(§6) In further tests in the greenhouse, the compound of Example 2 was tested for its activity against annual weeds in sugarbeets at test rates within the range of 0.07 to 1.12 kg/ha (0.0625 to 1.0 lb/A). The GR15 and GR85 rates for sugarbeets and the various weeds are shown in Table VI; the selectivity factors for the herbicide against the weeds in sugarbeets are shown in parentheses below the weeds; "NS" means non-selective within the test limits. The following abbreviations are used in the table: barnyardgrass (BYG), wild oats (WO), downy brome (DB); redroot pigweed (RRP), blackgrass (BG), large crabgrass (LCG) and yellow foxtail (YFT).

wild oats = assay: Sugarbeet greenhouse test, WO; conditions: in sugarbeets
Excerpt: as §4, §5, §6

blackgrass = assay: Sugarbeet greenhouse test, BG; conditions: in sugarbeets
Excerpt: as §4, §5, §6

Barnyardgrass = assay: Sugarbeet greenhouse test, BYG; conditions: in sugarbeets
Excerpt: as §4, §5, §6

yellow foxtail = assay: Sugarbeet greenhouse test, YFT; conditions: in sugarbeets
Excerpt: as §4, §5, §6

Downy Brome = assay: Sugarbeet greenhouse test, DB; conditions: in sugarbeets
Excerpt: as §4, §5, §6

Sugarbeets = assay: Sugarbeet greenhouse test, crop tolerance
Experimental: as §4, §6

large crabgrass = assay: Sugarbeet greenhouse test, LCG; conditions: in sugarbeets
Excerpt: as §4, §5, §6

SMILES: CCCCOc1cccc(CC)c1N(C)C(=O)CCl [Example 1, N-methyl-2'-n-butoxy-6'-ethyl-2-chloroacetanilide]
- Rating, Crabgrass (Crabgrass; 0.006 kg/h): 1 (25-49)
- Rating, Crabgrass (Crabgrass; 0.01 kg/h): 3 (75-100)
- Rating, Crabgrass (Crabgrass; 0.06 kg/h): 3 (75-100)
- Rating, Crabgrass (Crabgrass; 0.28 kg/h): 3 (75-100)
- Rating, Crabgrass (Crabgrass; 1.12 kg/h): 3 (75-100)
- Rating, Crabgrass (Crabgrass; 5.6 kg/h): 3 (75-100)
- expected fish kill relative to Compound A (Carp; at expected use rates, vs Compound A): only one-sixth
- toxicity to carp relative to Compound A (Carp; vs Compound A): less than one-third as toxic
- toxicity to carp relative to Compound C (Carp; vs Compound C): almost one-half as toxic
- LC50 at 96 h ([1]; 96 Hours): 2.4 µg/mL (≈ 8.46 µM)
- LC50 at 48 h ([1]; 48 hours): 3.2 µg/mL (≈ 11.3 µM)
- Rating, Canada Thistle (Canada Thistle; 5.6 kg/h): 3 (75-100)
- Rating, Canada Thistle (Canada Thistle; 11.2 kg/h): 3 (75-100)

SMILES: CCCCOc1cccc(CC)c1N(CC)C(=O)CCl [Example 2, N-ethyl-2'-n-butoxy-6'-ethyl-2-chloroacetanilide]
- GR85 Rate, RRP (redroot pigweed): > 1.12 Kg/Ha
- selectivity factor, RRP (redroot pigweed): NS (non-selective within the test limits)
- GR85 Rate, WO (wild oats): 0.28 Kg/Ha
- selectivity factor, WO (wild oats): 2.0
- GR85 Rate, BG (blackgrass): 0.21 Kg/Ha
- selectivity factor, BG (blackgrass): 2.7
- GR85 Rate, BYG (Barnyardgrass): < 0.07 Kg/Ha
- selectivity factor, BYG (Barnyardgrass): > 8.0
- GR85 Rate, YFT (yellow foxtail): < 0.07 Kg/Ha
- selectivity factor, YFT (yellow foxtail): > 8.0
- GR85 Rate, DB (Downy Brome): 0.14 Kg/Ha
- selectivity factor, DB (Downy Brome): 4.0
- GR15 Rate, Sugarbeets (Sugarbeets): 0.56 Kg/Ha
- GR85 Rate, LCG (large crabgrass): 0.07 Kg/Ha
- selectivity factor, LCG (large crabgrass): 8.0
